# Reference: publication PMC9284491 (Nature Communications, 2022)
# “Also recorded” adds a separate entry of the source.
# Experiment: Treatment-emergent adverse events (MedDRA, NCI-CTCAE v4.03), safety populations
# Assay type: in vivo, human
# Protocol: Overall safety in Parts A and B was assessed by tabulating TEAEs, coded using the Medical Dictionary for Regulatory Activities (MedDRA) version 22.1, and graded according to NCI-CTCAE v4.03 criteria. TEAEs were classified as related or unrelated to amcenestrant therapy based upon the local investigating physician’s clinical judgment. The safety population included all patients exposed to at least one dose of the study treatment. Results were analyzed using descriptive statistics.
smiles,measurement,setting,value
"O=C(O)c1ccc2c(c1)CCCC(c1ccc(Cl)cc1Cl)=C2c1ccc(O[C@H]2CCN(CCCF)C2)cc1 [amcenestrant, 6-(2,4-Dichlorophenyl)−5-[4-[(3S)−1-(3-fluoropropyl)pyrrolidin-3-yl]oxyphenyl]−8,9-dihydro-7H-benzo[7]annulene-2-carboxylic acid]","Headache, Treatment-related TEAEs, All Grades","Part B, 400 mg QD (N = 49)",0 n (%)
same,"Headache, Treatment-related TEAEs, Grade 1","Part B, 400 mg QD (N = 49)",0 n (%)
same,"Headache, Treatment-related TEAEs, Grade 2","Part B, 400 mg QD (N = 49)",0 n (%)
same,"Headache, Treatment-related TEAEs, Grade ≥3","Part B, 400 mg QD (N = 49)",0 n (%)
same,"Hot flush, TEAEs, All grades","Part B, 400 mg QD (N = 49)",7 (14.3) n (%)
same,"Hot flush, TEAEs, Grade 1","Part B, 400 mg QD (N = 49)",5 (10.2) n (%)
same,"Hot flush, TEAEs, Grade 2","Part B, 400 mg QD (N = 49)",2 (4.1) n (%)
same,"Hot flush, TEAEs, Grade ≥3","Part B, 400 mg QD (N = 49)",0 n (%)
same,"Hot flush, Treatment-related TEAEs, All Grades","Part B, 400 mg QD (N = 49)",5 (10.2) n (%)
same,"Hot flush, Treatment-related TEAEs, Grade 1","Part B, 400 mg QD (N = 49)",5 (10.2) n (%)
same,"Hot flush, Treatment-related TEAEs, Grade 2","Part B, 400 mg QD (N = 49)",0 n (%)
same,"Hot flush, Treatment-related TEAEs, Grade ≥3","Part B, 400 mg QD (N = 49)",0 n (%)
same,"Hypertension, TEAEs, All grades","Part B, 400 mg QD (N = 49)",4 (8.2) n (%)
same,"Hypertension, TEAEs, Grade 1","Part B, 400 mg QD (N = 49)",0 n (%)
same,"Hypertension, TEAEs, Grade 2","Part B, 400 mg QD (N = 49)",4 (8.2) n (%)
same,"Hypertension, TEAEs, Grade ≥3","Part B, 400 mg QD (N = 49)",0 n (%)
same,"Hypertension, Treatment-related TEAEs, All Grades","Part B, 400 mg QD (N = 49)",1 (2.0) n (%)
same,"Hypertension, Treatment-related TEAEs, Grade 1","Part B, 400 mg QD (N = 49)",0 n (%)
same,"Hypertension, Treatment-related TEAEs, Grade 2","Part B, 400 mg QD (N = 49)",1 (2.0) n (%)
same,"Hypertension, Treatment-related TEAEs, Grade ≥3","Part B, 400 mg QD (N = 49)",0 n (%)
same,"Nasopharyngitis, TEAEs, All grades","Part B, 400 mg QD (N = 49)",3 (6.1) n (%)
same,"Nasopharyngitis, TEAEs, Grade 1","Part B, 400 mg QD (N = 49)",3 (6.1) n (%)
same,"Nasopharyngitis, TEAEs, Grade 2","Part B, 400 mg QD (N = 49)",0 n (%)
same,"Nasopharyngitis, TEAEs, Grade ≥3","Part B, 400 mg QD (N = 49)",0 n (%)
same,"Nasopharyngitis, Treatment-related TEAEs, All Grades","Part B, 400 mg QD (N = 49)",0 n (%)
same,"Nasopharyngitis, Treatment-related TEAEs, Grade 1","Part B, 400 mg QD (N = 49)",0 n (%)
same,"Nasopharyngitis, Treatment-related TEAEs, Grade 2","Part B, 400 mg QD (N = 49)",0 n (%)
same,"Nasopharyngitis, Treatment-related TEAEs, Grade ≥3","Part B, 400 mg QD (N = 49)",0 n (%)
same,"Nausea, TEAEs, All grades","Part B, 400 mg QD (N = 49)",11 (22.4) n (%)
same,"Nausea, TEAEs, Grade 1","Part B, 400 mg QD (N = 49)",9 (18.4) n (%)
same,"Nausea, TEAEs, Grade 2","Part B, 400 mg QD (N = 49)",1 (2.0) n (%)
same,"Nausea, TEAEs, Grade ≥3","Part B, 400 mg QD (N = 49)",1 (2.0) n (%)
same,"Nausea, Treatment-related TEAEs, All Grades","Part B, 400 mg QD (N = 49)",2 (4.1) n (%)
same,"Nausea, Treatment-related TEAEs, Grade 1","Part B, 400 mg QD (N = 49)",2 (4.1) n (%)
same,"Nausea, Treatment-related TEAEs, Grade 2","Part B, 400 mg QD (N = 49)",0 n (%)
same,"Nausea, Treatment-related TEAEs, Grade ≥3","Part B, 400 mg QD (N = 49)",0 n (%)
same,"Pain in extremity, TEAEs, All grades","Part B, 400 mg QD (N = 49)",3 (6.1) n (%)
same,"Pain in extremity, TEAEs, Grade 1","Part B, 400 mg QD (N = 49)",2 (4.1) n (%)
same,"Pain in extremity, TEAEs, Grade 2","Part B, 400 mg QD (N = 49)",1 (2.0) n (%)
same,"Pain in extremity, Treatment-related TEAEs, All Grades","Part B, 400 mg QD (N = 49)",0 n (%)
same,"Pain in extremity, Treatment-related TEAEs, Grade 1","Part B, 400 mg QD (N = 49)",0 n (%)
same,"Pain in extremity, Treatment-related TEAEs, Grade 2","Part B, 400 mg QD (N = 49)",0 n (%)
same,"Pain in extremity, Treatment-related TEAEs, Grade ≥3","Part B, 400 mg QD (N = 49)",0 n (%)
same,"Paresthesia, TEAEs, All grades","Part B, 400 mg QD (N = 49)",3 (6.1) n (%)
same,"Paresthesia, TEAEs, Grade 1","Part B, 400 mg QD (N = 49)",3 (6.1) n (%)
same,"Paresthesia, TEAEs, Grade 2","Part B, 400 mg QD (N = 49)",0 n (%)
same,"Paresthesia, TEAEs, Grade ≥3","Part B, 400 mg QD (N = 49)",0 n (%)
same,"Paresthesia, Treatment-related TEAEs, All Grades","Part B, 400 mg QD (N = 49)",1 (2.0) n (%)
same,"Paresthesia, Treatment-related TEAEs, Grade 1","Part B, 400 mg QD (N = 49)",1 (2.0) n (%)
same,"Paresthesia, Treatment-related TEAEs, Grade 2","Part B, 400 mg QD (N = 49)",0 n (%)
same,"Paresthesia, Treatment-related TEAEs, Grade ≥3","Part B, 400 mg QD (N = 49)",0 n (%)
same,"Pyrexia, TEAEs, All grades","Part B, 400 mg QD (N = 49)",4 (8.2) n (%)
same,"Pyrexia, TEAEs, Grade 1","Part B, 400 mg QD (N = 49)",3 (6.1) n (%)
same,"Pyrexia, TEAEs, Grade 2","Part B, 400 mg QD (N = 49)",1 (2.0) n (%)
same,"Pyrexia, TEAEs, Grade ≥3","Part B, 400 mg QD (N = 49)",0 n (%)
same,"Pyrexia, Treatment-related TEAEs, All Grades","Part B, 400 mg QD (N = 49)",0 n (%)
same,"Pyrexia, Treatment-related TEAEs, Grade 1","Part B, 400 mg QD (N = 49)",0 n (%)
same,"Pyrexia, Treatment-related TEAEs, Grade 2","Part B, 400 mg QD (N = 49)",0 n (%)
same,"Pyrexia, Treatment-related TEAEs, Grade ≥3","Part B, 400 mg QD (N = 49)",0 n (%)
same,"Rhinitis allergic, TEAEs, All grades","Part B, 400 mg QD (N = 49)",3 (6.1) n (%)
same,"Rhinitis allergic, TEAEs, Grade 1","Part B, 400 mg QD (N = 49)",2 (4.1) n (%)
same,"Rhinitis allergic, TEAEs, Grade 2","Part B, 400 mg QD (N = 49)",1 (2.0) n (%)
same,"Rhinitis allergic, TEAEs, Grade ≥3","Part B, 400 mg QD (N = 49)",0 n (%)
same,"Rhinitis allergic, Treatment-related TEAEs, All Grades","Part B, 400 mg QD (N = 49)",0 n (%)
same,"Rhinitis allergic, Treatment-related TEAEs, Grade 1","Part B, 400 mg QD (N = 49)",0 n (%)
same,"Rhinitis allergic, Treatment-related TEAEs, Grade 2","Part B, 400 mg QD (N = 49)",0 n (%)
same,"Rhinitis allergic, Treatment-related TEAEs, Grade ≥3","Part B, 400 mg QD (N = 49)",0 n (%)
same,"Urinary tract infection, TEAEs, All grades","Part B, 400 mg QD (N = 49)",5 (10.2) n (%)
same,"Urinary tract infection, TEAEs, Grade 1","Part B, 400 mg QD (N = 49)",0 n (%)
same,"Urinary tract infection, TEAEs, Grade 2","Part B, 400 mg QD (N = 49)",5 (10.2) n (%)
same,"Urinary tract infection, TEAEs, Grade ≥3","Part B, 400 mg QD (N = 49)",0 n (%)
same,"Urinary tract infection, Treatment-related TEAEs, All Grades","Part B, 400 mg QD (N = 49)",1 (2.0) n (%)
same,"Urinary tract infection, Treatment-related TEAEs, Grade 1","Part B, 400 mg QD (N = 49)",0 n (%)
same,"Urinary tract infection, Treatment-related TEAEs, Grade 2","Part B, 400 mg QD (N = 49)",1 (2.0) n (%)
same,"Urinary tract infection, Treatment-related TEAEs, Grade ≥3","Part B, 400 mg QD (N = 49)",0 n (%)
same,"Vomiting, TEAEs, All grades","Part B, 400 mg QD (N = 49)",14 (28.6) n (%)
same,"Vomiting, TEAEs, Grade 1","Part B, 400 mg QD (N = 49)",10 (20.4) n (%)
same,"Vomiting, TEAEs, Grade 2","Part B, 400 mg QD (N = 49)",3 (6.1) n (%)
same,"Vomiting, TEAEs, Grade ≥3","Part B, 400 mg QD (N = 49)",1 (2.0) n (%)
same,"Vomiting, Treatment-related TEAEs, All Grades","Part B, 400 mg QD (N = 49)",4 (8.2) n (%)
same,"Vomiting, Treatment-related TEAEs, Grade 1","Part B, 400 mg QD (N = 49)",4 (8.2) n (%)
same,"Vomiting, Treatment-related TEAEs, Grade 2","Part B, 400 mg QD (N = 49)",0 n (%)
same,"Vomiting, Treatment-related TEAEs, Grade ≥3","Part B, 400 mg QD (N = 49)",0 n (%)
same,"treatment-related TEAE arthralgia, patients","Part B, 400 mg QD (n = 49)",8.2%
same,"treatment-related TEAE constipation, patients","Part B, 400 mg QD (n = 49)",6.1%
same,"treatment-related TEAE gastroesophageal reflux disease, patients","Part B, 400 mg QD (n = 49)",6.1%
same,"treatment-related TEAE hot flush, patients","Part B, 400 mg QD (n = 49)",10.2%
same,"treatment-related TEAE vomiting, patients","Part B, 400 mg QD (n = 49)",8.2%
same,patients with serious TEAEs,"Part B, 13/49",26.5%
same,patients with at least one Grade ≥3 TEAE,"Part B, 16/49, none considered related to amcenestrant",32.7%
same,cardiac non-treatment-related TEAE,"Part B, Grade 1 sinus bradycardia",One cardiac non-treatment-related TEAE was reported
same,Grade ≥3 treatment-related adverse events,Parts A and B,No Grade ≥3 treatment-related adverse events; also recorded: no treatment-related TEAEs of Grade ≥3 occurred
same,clinically significant cardiac or eye safety findings,Parts A and B,no clinically significant cardiac or eye safety findings were observed
